According to patent publication US20220411397A1, “ANALOGUES OF N-ACYL-HOMOSERINE LACTONES AND PHARMACEUTICAL COMPOSITION COMPRISING SAME” (SORBONNE UNIVERSITE, priority 2019, published 2022):
Read-outs that look alike come from different tables or passages of the source.

Tests used:
[1] = system: Caco-2/TC7 cells; assay: Stimulation of Caco-2/TC7 cells by IL-1β, IL-8 secretion (ELISA); type: cell-based, human
Description: 1.1.1. The Caco-2/TC7 Cell Line • The Caco-2 cell line is derived from a human colon adenocarcinoma and represents a cell culture model of enterocytes lining the epithelium of the small intestinal. […] During the exponential growth phase (from seeding to confluence), the cells remain undifferentiated. At confluence, they can spontaneously (in the absence of differentiation inducers) differentiate and progressively polarize. The differentiation process, which is a growth-related mechanism, is maximal at the end of confluence (stationary phase of the growth curve). • The cells develop a brush border at the apical pole containing microvilli and with characteristic enterocytic enzymes, such as hydrolases. • In accordance with the published literature, the Caco-2/TC7 cells in our experiments were seeded at 10^5 cells/well (equivalent to 10-12×10^3 cells/cm^2) in 6-well plastic culture plates. The cells were maintained in a glucose-rich medium (high glucose in the DMEM GlutaMAX medium 4.5 g/I glucose) supplemented with 20% heat-inactivated foetal calf serum, 1% nonessential amino acids NEAA, and 1% penicillin streptomycin. The cells were grown at 37° C. in a 10% CO2/air atmosphere. The medium was changed every day. Under these conditions, the cells were confluent on day 6. On day 17, the cells were serum-starved, and were used on day 18.
1.2.1. Stimulation of Caco-2/TC7 with Cytokines • The Caco-2/TC7 cells were seeded in 6-well plates at 100,000 cells/well and grown for 18 days. On day 17, the cells were serum-starved, which means that the cell medium was replaced with a foetal calf serum-free medium, and used on day 18. • The stimulation medium was composed of a medium referred to as “starvation medium”, i.e. without foetal calf serum (DMEM GlutaMAX, 1% NEAA, 1% penicillin-streptomycin) with 100 μM of 2-HQ. The cells were incubated for 18 h at 37° C. with 2 ml of stimulation medium containing 0.1% DMSO (negative control) or stimulation medium containing the compounds tested at desired concentrations, with or without proinflammatory cytokines to induce an inflammation. To induce the inflammation, either the IL-1β at 25 ng/ml or the combination of TNF-α and IFN-γ at 50 ng/ml each were used. After 18 h, the supernatants were collected and stored at −80° C. before analysis by ELISA test. The cells were washed with 1 ml of PBS 1×/well, and lysed in 100 μl of PBS 1× containing 1% Triton X-100. The cells were harvested by scraping and stored at −80° C. before the quantification of the protein. The dosing of the LDH was performed immediately before freezing. • All the experiments on the cells were performed in triplicates.
1.2.4. Quantification of the Human Cytokines by ELISA • The levels of the proinflammatory cytokine IL-8 produced by the cells were determined in the cell supernatants and/or cell lysates using the commercially available IL-8 ELISA detection kit (Duoset Human C×CL8/IL-8, ref. DY208) provided by R & D Systems (Minneapolis, Minn., USA) according to the instructions of the manufacturer. • All the cytokine levels were first normalized to the protein content determined in the corresponding cell lysates. Then, to compare the experiments, they could be further normalized using the activated control condition (DMSO+cytokines) as the 100% response.

[2] = target: T1, LasR receptor (Pseudomonas aeruginosa, UniProt P25084); assay: Activation of the LasR receptor on bacterial reporter strain E. coli pSB1075 (bioluminescence); type: cell-based
T1 construct: expressed in transfected cells; host or cells: Escherichia coli carrying plasmid pSB1075
Description: 1.1.3. The Bacterial Reporter Strain E. coli pSB1075 • A bacterial reporter strain of the Quorum Sensing was used to study the ability of the molecules to be recognized by the Pseudomonas aeruginosa AHL receptor (LasR) and induce an activation. […] This bioluminescent strain was modified by addition of a plasmid pSB1075. This plasmid contains genes encoding both tetracycline resistance and the expression of the LasR AHL receptor from the Pseudomonas aeruginosa bacteria, as well as a fusion gene derived from the LasR promoter and the luxCDABE gene from Photorhabdus luminescence. The bacterial strain was grown in the LB medium supplemented with 5 μg/ml tetracycline to exert a selection pressure and ensure that only the desired strain was amplified. The fusion gene included in the plasmid gives the bacteria the ability to emit a bioluminescence when the LasR receptor is activated, and provides the user with a robust test for the molecular screening. […] On day 1, the culture was diluted 1:100 (P1) in 10 ml of LB medium supplemented with 5 μg/ml tetracycline and maintained for 24 hours at 37° C. under stirring at 70 rpm. On day 2, the experiment took place: a bacterial suspension extemporaneously diluted 1:10 in LB medium supplemented with 5 μg/ml tetracycline (P2) was dispensed into a black opaque 96-well plate and incubated for 4 hours with a range of AHL concentrations or controls until the resulting luminescence was read at the end point. All experiments were performed in triplicates.
1.3. […] This bioluminescent strain was developed by the addition of a plasmid pSB1075 containing genes encoding the tetracycline resistance and the expression of the LasR AHL receptor, as well as a fusion gene of the LasR promoter and the luxCDABE gene of Photorhabdus luminescence. • On day 1, a 1/100 dilution of the bacterial strain (P1) was grown for 24 hours at 37° C. under stirring (70 rpm) in a LB medium containing 5 μg/ml tetracycline (pressure selective). On day 2, P1 was diluted 1:10 in the same medium to obtain P2. In a black 96-well plate were placed 200 μL of P2 and 10 μL of the short chain compound (medium, water and DMSO for the negative controls, C4-HSL as positive control, and the test sample at the desired concentration). The plate was incubated for 4 hours at 37° C. under stirring at 70 rpm. […] After that, the incubation was continued according to the conventional protocol, with the test compound at the desired concentrations.

[3] = system: E. coli K12 strain; assay: Bactericidal dosage on the E. coli K12 strain (absorbance at 600 nm); type: cell-based; settings: for comparative survival of E. coli K12: all concentrations, maximum 100 μM shown, 18 h
Procedure: 1.1.4. Bactericidal Dosage • The K12 strain of E. coli was grown on agar on day 0 and a colony was transferred to the LYBHI liquid bacterial culture medium on day 1. On day 2, the colony was diluted 1:100 in LYBHI medium and amplified for 18 hours before transfer to an opaque 96-well plate. In each well, LYBHI, controls or increasing doses of tested molecules and bacteria were distributed. The absorbance at 600 nm was read at start-up (t=0) and after an 18-hour incubation. The raw absorbance values were corrected using the absorbance of solutions without bacteria. All experiments were performed twice, each with 4 replicates.
The E. coli K12 strain was cultured at D0 on agar gel, and then a selected colony was transferred to a liquid bacterial culture LYBHI medium at D1. At day 2, this colony was diluted 1:100 in LYBHI medium, and maintained for 18 hours for expansion before distribution in an opaque 96-well plate. In each well were distributed: LYBHI medium, bacterial culture, and test or control compounds. The absorbance of the wells was read at 600 nm at t0 and t18h. The raw absorbance values were corrected against the absorbance of the wells containing only LYBHI medium without bacteria or compounds.

[4] = system: Raw264.7 murine cells; assay: Cytotoxicity test, LDH secretion, Raw264.7; type: cell-based; settings: as early as 50 μM; basal and stimulated conditions
Procedure: (§1) 1.2.6. […] To measure the concentration of LDH in the cell lysate, 800 μL of NADH was added to 10 μL of […] and 190 μL of 0.1 M PBS in a plastic cuvette, and the decrease in the absorbance at 340 nm was monitored for 1 min. […] The percentage of cytotoxicity could be established with the formula: […]
(§2) The cytotoxicity of the tested and control compounds was evaluated using a measurement test of the LDH (Lactate Dehydrogenase) secretion. This test is based on the measurement of the amount of LDH secreted by the cells in their supernatant, compared to the amount of LDH that will remain in the intracellular compartment. This ratio provides an indication of the membrane damage suffered by the cells, and thus of the cytotoxicity of the compound.
(§3) Two methods were used to perform this test: the measurement using an extemporaneously prepared pyruvate/NADH solution, or using the Cytotoxicity Detection Kit^PLUS(LDH) from the manufacturer Roche (Sigma-Aldrich).
(§4) Pyruvate/NADH method: pyruvate/NADH solution prepared with 4.1 mg pyruvic acid (0.62 mM) and 7.7 mg NADH (0.18 mM) in 60 ml of 0.1M PBS (pH 7.4).
(§5) For the measurement of the LDH concentration in the supernatants, 800 μL of NADH was added to 200 μL of supernatant in plastic spectrometry cuvettes, and the decrease in absorbance of the final solution was read at 340 nm for 1 min. For the measurement of the LDH concentration in the cell lysates, 800 μL of NADH was added to 10 μL of cell lysates and 190 μL of 0.1M PBS in plastic spectrometry cuvettes, and the decrease in absorbance of the final solution was read at 340 nm for 1 min. The percentage of LDH secreted was then calculated by the ratio of the decay slopes of the absorbance of the supernatants and of the cell lysates (respectively).
(§6) Cytotoxicity Detection Kit^PLUS (LDH) method: absorbance test performed according to the manufacturer's instructions. The percentage of LDH secreted was then calculated by the formula: […]

[5] = system: human lymphocytes; assay: Inhibition of IL-2 secretion by human lymphocytes stimulated by CD2, CD3 and CD28; type: cell-based; settings: test of FIG. 5
[6] = system: human keratinocytes; assay: Inhibition of IL-8 secretion by human keratinocytes stimulated by IL-17 and TNF-α; type: cell-based; settings: test of FIG. 4
[7] = system: Caco-2/TC7 cells; assay: Cytotoxicity test, LDH secretion, Caco-2/TC7; type: cell-based; settings: 1-100 μM; for measured cytotoxicity (LDH): Caco-2/TC7
Procedure: as §1, §2, §3, §4, §5, §6

T1 sequence (P25084 whole entry): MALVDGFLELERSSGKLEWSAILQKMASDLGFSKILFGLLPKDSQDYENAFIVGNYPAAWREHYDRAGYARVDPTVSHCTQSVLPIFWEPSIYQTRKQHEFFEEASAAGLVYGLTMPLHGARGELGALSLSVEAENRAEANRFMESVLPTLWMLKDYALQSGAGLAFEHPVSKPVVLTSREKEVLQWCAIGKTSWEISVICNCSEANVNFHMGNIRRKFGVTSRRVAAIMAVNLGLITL

Row | Compound | comparative survival of E. coli K12 [3] | secreted LDH, Raw264.7 [4] | activity on IL-2 secretion by lymphocytes [5] | activity on IL-8 secretion by keratinocytes [6] | measured cytotoxicity (LDH) [7] [%] | also measured
1 | CCCCCCCCCC(=O)CC(=O)NC1CCSC1=O (racemic) [I-1, 3-oxo-N-(tetrahydro-2-oxo-3-thienyl)-dodecanamide] | No significant differences |  |  |  |  | activity on IL-1β-stimulated Caco-2/TC7 cells compared with natural 3-oxo-C12 HSL ([1]; IL-1β stimulation, no concentration range stated): an activity equivalent to that of the natural 3-oxo-C12 HSL; activity on IL-1β-stimulated Caco-2/TC7 cells compared with natural 3-oxo-C12 HSL ([1]; at the 100 μM dose): more active than the latter; EC50 [2]: 0.125 µM
2 | CCCCCCCCCC(=O)CC(=O)N[C@H]1CCOC1=O [3-oxo-C12-HSL, N-(3(S)-oxododecanoyl) homoserine lactone, reference compound] |  | an increase in secreted LDH | inactive | inactive | ≤ 2.5 | 
3 | CC/C=C\C/C=C\CCC(=O)CC(=O)N[C@H]1CCOC1=O [3-oxo-C12:2-HSL, reference compound] |  | an increase in secreted LDH | inactive | inactive | ≤ 1.5 | bactericidal effect on E. coli K12 ([3]; 1-100 μM, 18 h of incubation): No toxic effect; tolerance, Caco-2/TC7 ([7]; presence and absence of pro-inflammatory cytokines): well tolerated
4 | CCCC(=O)N[C@H]1CCOC1=O [C4-HSL, reference compound] |  |  |  |  |  | EC50 ([2]; bacterial reporter strain, read-out: EC50 of LasR receptor activation): > 1000 µM
5 | CCCCCCCCCC(=O)CC(=O)N[C@H]1CCSC1=O [I-3, 3-oxo N-[(3S)-tetrahydro-2-oxo-3-thienyl]-dodecanamide] | No significant differences |  |  |  |  | decrease in the inflammatory secretion ([1]; at 5 μM, IL-1β-stimulated Caco-2/TC7): 27%
